Laboratory results taken from patent publication US6921530B1, “Low dose IL-2 for potentiation of immunity” (Cornell Research Foundation, Inc., priority 1999, dated 2005).
Values joined by “and” are separate entries in the source; they are usually repeats but may differ in a detail not shown here. Identical values can stand only once.

Key:
[1] = tested on: circulating lymphocyte subsets (CD4+ T cells, CD8+ T cells, NK cells); assay: Circulating lymphocyte subsets by flow cytometry in HIV-positive subjects on PART + IL-2 and after cessation of PART; format: in vivo, human
Description: Conditions for patient exclusion included a) uncontrolled infection; b) concurrent therapy with glucocorticoids or other immunosuppressive agents; or c) concurrent immunomodulating agents, eg. IFN-a, granulocyte colony stimulating factor (G-CSF), granulocyte-monocyte colony stimulating factor (GM-CSF).
(§1) Prior to the discontinuation of PART, at least 3 months of daily, low-dose (250,000 U/m^2) subcutaneous IL-2 (R-Met-HU IL2-Ala-125, Amgen, Thousand Oaks, Calif.) immuno-stimulatory therapy were administered as described in Jacobsen, E L et al., Proc Natl Acad Sci USA 93:10405-10 (1996). In addition, to ensure the safest possible immune parameters for the discontinuation of PART, IL-2 immuno-stimulation was continued after the anti-viral drugs were withdrawn.
Subsequent to the discontinuation of PART, plasma HIV was monitored twice weekly. Plasma HIV RNA concentrations were determined on EDTA anti-coagulated plasma samples, which were frozen (−70° C.) within 3 hours of phlebotomy. Samples were assayed by Bayer Diagnostics, Emeryville, Calif. Lymphocyte subsets were determined on fresh blood samples by flow cytometry using subset-specific monoclonal antibodies and a FACSCaliber from Becton-Dickinson, San, Jose, Calif. by standard procedures according to the manufacturer.
For 3 months prior to the discontinuation of PART, the concentration of circulating lymphocyte subsets were monitored monthly (see Table 1). Subsequent to the discontinuation of PART, the lymphocytes were monitored weekly. Whole blood (1 ml) was activated in vitro with HIV recombinant p55 antigen (Chiron Corp., Emeryville, Calif., 1 μg/ml) for 6 hours at 37 C. During the last 4 hours, Brefeldin A (Sigma, Inc., St. Louis, Mo., […]) was added to retard cytokine secretion. At the end of the incubation, EDTA (Sigma, 100 mM) was added, the blood was vortexed vigorously for 10 seconds, and the erythrocytes were lysed using 10 ml FACSLysing Reagent. After a 10 minute incubation the leukocytes were separated by centrifugation (500×g, 10 min), then resuspended and frozen (−70 C) in 2 ml R.P.M.I. 1640 tissue cuture medium containing 10% fetal calf serum and 10% dimethyl sulfoxide. Prior to labeling with monoclonal antibodies, the cells were thawed, centrifuged (500×g, 10 min) and permeabilized using FACSPerm. After washing with 3 ml phosphate buffered saline (PBS), the cells were incubated with fluorochrome-conjugated monoclonal antibodies for 30 minutes at room temperature in the dark. The cells were then washed 1× with PBS, and then fixed with 0.5% paraformaldehyde and analyzed by flow cytometry.

[2] = tested on: plasma HIV RNA; assay: Plasma HIV RNA (branched chain DNA assay) after cessation of PART with continued low-dose IL-2; format: in vivo; conditions: for Increasing HIV Dbl time: IL-2 250,000 U/m^2 daily continued; for Max. Decrease (log): peak to trough
Experimental: The parameters monitored throughout the study included the time to the onset of viremia, the rate of viremic increase, the peak plasma virus concentration and the rapidity and completeness of the disappearance of viremia.
as §1, with “withdrawn. […] All subjects had undetectable plasma virus during this interval.” for “withdrawn.”
Subsequent to the discontinuation of PART, plasma HIV was monitored twice weekly. Plasma HIV RNA concentrations were determined on EDTA anti-coagulated plasma samples, which were frozen (−70° C.) within 3 hours of phlebotomy. Samples were assayed by Bayer Diagnostics, Emeryville, Calif. Lymphocyte subsets were determined on fresh blood samples by flow cytometry using subset-specific monoclonal antibodies and a FACSCaliber from Becton-Dickinson, San, Jose, Calif. by standard procedures according to the manufacturer. All subjects eventually experienced a relapse of viremia The onset of viremia in each subject was taken as t=day 1. The mean time interval until plasma virus once again became detectable was 19±3 (SEM) days (range 14-39 days). Once detectable, the plasma virus concentration increased progressively over 2.5 weeks, reaching a mean peak of 375,101±229,139 (SEM) (log10=5.15±0.21) HIV RNA molecules/ml. Thereafter, the virus concentration decreased progressively over the next 4-6 weeks, reaching an apparent trough defined as at least 4 successive measures of HIV RNA that varied less than 3-fold. By 6 weeks from the onset of the viremia, the mean virus concentration had decreased to 31,707±11,851 (SEM) (log10=4.21±0.19) HIV RNA molecules/ml, a drop from the peak viral concentration by an order of magnitude.

[3] = after cessation of PART, IL-2 continued, subject #1-9, mean
[4] = after cessation of PART, IL-2 continued, subject #1-9, mean, mean
[5] = second treatment interruption, 4 subjects

## Interleukin-2 [IL-2]
[1]; after 2 weeks of viremia
  CD8+ T cell concentration as % of baseline levels: > 200 % of baseline
[1]; after cessation of PART
  mean peak increase of CD8+ T cells, group with more rapid viral decline: 350 % of baseline
  mean peak increase of CD8+ T cells, group with slower viral decline: 150 % of baseline
[1]; entire interval after discontinuation of PART
  change of circulating NK cells: did not change significantly
[1]; just after the peak of viremia, after discontinuation of PART
  decrease of circulating CD4+ T cells compared with baseline: 24%
[1]; subject D3
  fold increase of CD8+ T cells from baseline: 8 fold
[1]; subject D3, coincident with drop in plasma HIV RNA
  CD8+ T cells at peak: 4,669 cells/mm3
[2]; 3 of 4 individuals
  peak plasma HIV RNA after the first interruption: 5.53±0.54 log10 HIV RNA molecules/ml
  peak plasma HIV RNA after the second interruption: 4.27±0.27 log10 HIV RNA molecules/ml
  peak plasma HIV RNA lower after second than first interruption: 1.26±0.14 log10 HIV RNA molecules/ml
[2]; after cessation of PART, subject #1-9, mean
  Increasing HIV Dbl time: 2.7 days and 1.3 days and 1.0 days and 2.0 days (2×) and 1.6 days (3×) and 1.2 days
[2]; after cessation of PART, subject #1-9, mean, mean
  Increasing HIV Dbl time: 1.6 days
[2]; [3]
  Decreasing HIV Time to Min.: 9 days and 28 days and 24 days and 7 days and 26 days (2×) and 10 days and 17 days and 18 days
  Increasing HIV Days to Peak: 28 days and 14 days (3×) and 21 days and 16 days (2×) and 18 days and 10 days
  Peak HIV #: 375,101±229,139 HIV RNA molecules/ml and 230,074 HIV RNA molecules/ml and 14059 HIV RNA molecules/ml and 40662 HIV RNA molecules/ml and 295942 HIV RNA molecules/ml and 160949 HIV RNA molecules/ml and 2185670 HIV RNA molecules/ml and 300203 HIV RNA molecules/ml and 375101 HIV RNA molecules/ml and 80910 HIV RNA molecules/ml and 230074 HIV RNA molecules/ml and 67442 HIV RNA molecules/ml
  Peak HIV (log): 5.15±0.21 log and (4.15) log and (4.61) log and (5.47) log and (5.21) log and (6.34) log and (5.48) log and (5.15) log and (4.91) log and (5.36) log and (4.83) log
  Trough HIV (log): 4.21±0.19 log and (3.96) log and (4.36) log and (4.69) log and (4.93) log and (4.97) log and (4.21) log and (3.68) log and (4.00) log and (3.36) log
[2]; after cessation of PART, IL-2 continued, subject #1-9, mean (by 6 weeks from onset of viremia)
  Trough HIV #: 31,707±11,851 HIV RNA molecules/ml and 9215 HIV RNA molecules/ml and 9180 HIV RNA molecules/ml and 22695 HIV RNA molecules/ml and 48562 HIV RNA molecules/ml and 85782 HIV RNA molecules/ml and 92901 HIV RNA molecules/ml and 31707 HIV RNA molecules/ml and 4741 HIV RNA molecules/ml and 10024 HIV RNA molecules/ml and 2266 HIV RNA molecules/ml
[2]; [4]
  Decreasing HIV Time to Min.: 18 days
  Increasing HIV Days to Peak: 17 days
[2]; after discontinuation of PART, 9 subjects, mean ± SEM and range
  time interval until plasma virus once again became detectable: 19 ± 3 days and 14 to 39 days
[2]; first 10 days after peak, IL-2 continued, subject #1-9, mean
  Decreasing HIV T ½: 3.5 ± 0.7 days and 7.6 days and 5.2 days and 5.5 days and 3.4 days and 1.6 days and 3.9 days and 3.5 days and 1.5 days and 1.8 days
[2]; subject #1-9, mean
  Max. Decrease (log): 0.19 log and 0.65 log and 1.11 log and 0.52 log and 1.41 log and 0.51 log and 1.23 log and 1.36 log and 1.47 log
[2]; subject #1-9, mean, mean
  Max. Decrease (log): 0.94 log
[2]; [5]
  latent period to detectable viremia: 14.5 ± 4.1 days
  rate of doubling (t½): 1.5 ± 0.3 days
[2]; subject D3
  days plasma HIV RNA undetectable after discontinuation of PART: 39 days
  plasma HIV RNA after 98 days as % of the peak viral concentration: < 1%
  plasma HIV RNA after 98 days without PART: 1,686 HIV RNA molecules/ml
[2]; subjects #1, 2, 3, 8
  mean magnitude of decline of plasma HIV, rapid rate subjects: 1.37±0.05 log10 HIV RNA molecules/ml
  t ½ of viral decline, subjects with rapid rate: 1.6 ± 0.1 days
[2]; subjects #4, 5, 6, 7, 9
  magnitude of decline of plasma HIV, slower rate subjects: 0.59±0.15 log10 HIV RNA molecules/ml
  mean t ½ of viral decline, subjects with slow rate: 5.1 ± 0.7 days
